Results as given in US11779594B2, “Compositions for the treatment of epithelial lesions” (INTERNATIONAL HEALTH SCIENCE S.R.L., priority 2019, dated 2023).

Test system: COLO-680N esophagus cells
Test: scratch wound healing of COLO-680N esophagus cell monolayer irritated with BSC medium
Assay type: cell-based, human
Settings: COLO-680N cells treated with BSC; vs placebo, P<0.05 (FIG. 5)
Experimental: The adhesive, barrier, soothing and repairing effects of a composition of the invention was studied in different experimental models of esophageal epithelial cells (i.e. CP-A and COLO-680N) by simulating in vitro the damage induced by gastric content on the esophagus.
To this aim, we incubated the cell monolayer with a medium (named BSC) containing bile salts cocktail, pepsin and pH 2.5 (thus simulating the gastric juice).
The significant repairing effect was assessed as described in FIG. 1-5. Confluent monolayers of COLO-680N esophagus cells, cultured in a 24 well plate, were scraped with a pipette tip and, after washing twice with PBS, were incubated with BSC (irritant medium simulating the gastro-intestinal juice) or culture medium alone as a negative control. […] Wound closure (healing) was evaluated up to 24 h under a Leica DMIL inverted microscope (Leica Microsystem) and images were collected using a Canon Powershot A640 digital camera (Canon). The cellular movements, distance and cell number were used for quantitative evaluations. The images were analyzed by ImaJ software. Results were analyzed by statistical method for assessing the significance compared to both controls and single component of the invention; the differences were considered significant for p<0.05 (FIG. 5).

Substance: sodium hyaluronate [HA]
- quantified wound healing effect (number of cells, movements, distance covered): do not exert wound healing effect
